From patent publication US20130059903A1, “Compositions and Methods for Characterizing Breast Cancer” (THE JOHNS HOPKINS UNIVERSITY, priority 2010, published 2013)

How the values were obtained:
Type in all cases: cell-based
MCF-7 cells [1] = test: Dye efflux assays
Procedure: (§1) Semiconfluent cells were washed once with HBSS and resuspended in growth medium at 1×10^6 cells/ml and 5 μg/ml Hoechst 33342 (Sigma-Aldrich, St. Louis, Mo.) and incubated for 45 minutes at 37° C. in a constant-temperature water bath. Subsequently, the cells were washed once in cold HBSS/2% BSA and resuspended in warm medium and incubated for 45 minutes at 37° C. for efflux. Cells were centrifuged and mounted on a slide before photomicroscopy.
(§2) For Rhodamine 123 (Sigma-Aldrich) staining, cells were trypsinized and washed twice in PBS/1% FCS. One million cells were resuspended in 100 μl of PBS/1% FCS and stained with 100 to 500 ng/ml Rhodamine 123 for 15 to 30 minutes at 37° C. Cells were washed twice at room temperature, resuspended, and incubated without Rhodamine 123 for 15 to 30 minutes at 37° C. to allow for efflux to occur. Rhodamine efflux was subsequently determined by flow cytometry on a FACScan II flow cytometer.

MCF-7/Twist cells [2] = test: Dye efflux assays
Procedure: as §1, §2

ER = ER re-expression after methylation inhibitor / HDAC inhibitor treatment (qRT-PCR, immunoblot); conditions: MCF-7/Twist cells; 1 μM AZA, 10 μM VPA, three days; qRT-PCR and immunoblotting
Procedure: Cells were treated with 1 μM AZA for three days and DNA processed for demethylation studies by methylation specific quantitative PCR (MS-qPCR). Total proteins were extracted and immunoblotted to analyze the effect of demethylation on ER expression. Cells were treated with HDAC inhibitor VPA at 10 μM concentration for three days and processed similarly.

MCF-7 cells [3] = test: Cell cycle analysis by flow cytometry after anti-estrogen treatment; conditions: 1 μM 4-hydroxytamoxifen or 1 nM fulvestrant in PRF-MEM/5% CSS, three days
Procedure: (§3) Cell lines were obtained from ATCC (Manassas, Va.) and maintained as instructed. Construction of MCF-7/Twist and MCF 10A/Twist cell lines have been described earlier (19, 23). For transient expression, cells were transfected using either retroviral constructs (generated in-house) or lentiviral constructs (Open Biosystems, Huntsville, Ala.). For hormone studies, cells were grown for two days in phenol-red free minimal essential media (PRF-MEM) containing 5% charcoal stripped serum (CSS). For anti-estrogen treatment, PRFMEM/5% CSS media was supplemented with 1 μM 4-hydroxytamoxifen (tamoxifen) or 1 nM fulvestrant. Three days following treatment, the cells were fixed in 70% ethanol and cell cycle analysis performed on a FacScan I (BD Biosciences, San Jose, Calif.). Independent experiments were repeated four times. Data was analyzed using FlowJo (Tree Star Inc., Ashland, Oreg.) and ModFit LT 2.0 software (Verity House Software, Topsham, Me.).

MCF-7/Twist cells [4] = test: as above; conditions: 1 μM 4-hydroxytamoxifen or 1 nM fulvestrant in PRF-MEM/5% CSS, three days
Procedure: as §3

[5] = 5 μg/ml Hoechst 33342, 45 minutes efflux, microscopy

## CCOc1ccc(-c2nc3ccc(-c4nc5ccc(N6CCN(C)CC6)cc5[nH]4)cc3[nH]2)cc1 [Hoechst 33342]
MCF-7 cells [1]; [5]
  relative fluorescence intensity per cell (dye retained after efflux): 65
MCF-7/Twist cells [2]; [5]
  relative fluorescence intensity per cell (dye retained after efflux): 57

## Nc1ncn([C@H]2C[C@H](O)[C@@H](CO)O2)c(=O)n1 [AZA, 5-aza 2′-deoxycytidine]
ER
  ER expression (transcript and protein levels): significant increase

## Rhodamine 123
MCF-7 cells [1]; Rhodamine 123, flow cytometry
  mean fluorescence intensity (dye retained after efflux): 205
MCF-7/Twist cells [2]; Rhodamine 123, flow cytometry
  mean fluorescence intensity (dye retained after efflux): 96

## C[C@]12CC[C@@H]3c4ccc(O)cc4C[C@@H](CCCCCCCCC[S+]([O-])CCCC(F)(F)C(F)(F)F)[C@H]3[C@@H]1CC[C@@H]2O (stereo partly drawn) [fulvestrant]
MCF-7 cells [3]
  G1 (percentage of cells in cell cycle phase): 86%
  G2/M (percentage of cells in cell cycle phase): 5.8%
  S (percentage of cells in cell cycle phase): 3.9%
MCF-7/Twist cells [4]
  G1 (percentage of cells in cell cycle phase): 67.7%
  G2/M (percentage of cells in cell cycle phase): 13.3%
  S (percentage of cells in cell cycle phase): 16.6%

## CCCC(CCC)C(=O)O [VPA, valproic acid]
ER
  ER expression (transcript and protein levels): significant increase
